Tests used:
GST-HIAP1(cIAP-2) BIR 3 = biological target: T1, GST-HIAP1(cIAP-2) BIR 3 (Homo sapiens, UniProt Q13489); assay: Fluorescence polarization-based competition assay, cIAP-2 Bir3; format: binding
T1 construct: made in house; host or cells: E. coli DH5-alpha
Method: GST-HIAP1(cIAP-2) BIR 3: HIAP1 coding sequence from amino acids 236-349, cloned into PGex4T3 via BamH1 and XhoI. The plasmid was transformed into E. coli DH5α for use in protein expression and purification.
(§1) A fluorescent peptide probe, Fmoc-Ala-Val-Pro-Phe-Tyr(t-Bu)-Leu-Pro-Gly(t-Bu)-Gly-OH was prepared using standard Fmoc chemistry on 2-chlorotrityl chloride resin (Int. J. Pept. Prot. Res. 38:555-561, 1991). Cleavage from the resin was performed using 20% acetic acid in dichloromethane (DCM), which left the side chain still blocked. The C-terminal protected carboxylic acid was coupled to 4′-(aminomethyl)fluorescein (Molecular Probes, A-1351; Eugene, Oreg.) using excess diisopropylcarbodiimide (DIC) in dimethylformamide (DMF) at room temperature and was purified by silica gel chromatography (10% methanol in DCM). The N-terminal Fmoc protecting group was removed using piperidine (20%) in DMF, and purified by silica gel chromatography (20% methanol in DCM, 0.5% HOAc). Finally, the t-butyl side chain protective groups were removed using 95% trifluoroacetic acid containing 2.5% water and 2.5% triisopropyl silane. […] Compound #174 was also used as a fluorescent probe in this assay.
(§2) For all assays, the fluorescence and fluorescence-polarization was evaluated using a Tecan Polarion instrument with the excitation filter set at 485 nm and the emission filter set at 535 nm. For each assay, the concentration of the target protein was first establish by titration of the selected protein in order to produce a linear dose-response signal when incubated alone in the presence of the fluorescent probe. Upon establishing these conditions, the compounds potency (IC50) and selectivity, was assessed in the presence of a fix defined-amount of target protein and fluorescent probe and a 10 point serial dilution of the selected compounds. For each IC50 curve, the assays were run as followed: 25 ul/well of diluted compound in 50 mM MES buffer pH 6.5 were added into a black 96 well plate then 25 ul/well of bovine serum albumin (BSA) at 0.5 mg/ml in 50 mM MES pH 6.5. Auto-fluorescence for each compound was first assessed by performing a reading of the compound/BSA solution alone. Then 25 ul of the fluorescein probe diluted into 50 mM MES containing 0.05 mg/ml BSA were added and a reading to detect quenching of fluorescein signal done. Finally 25 ul/well of the target or control protein (GST-BIRs) diluted at the appropriate concentration in 50 mM MES containing 0.05 mg/ml BSA were added and the fluorescence polarization evaluated.
(§3) For each assay the relative polarization-fluorescence units were plotted against the final concentrations of compound and the IC50 calculated using the Grad pad prism software and/or Cambridge soft. The ki value were derived from the calculated IC50 value as described above and according to the equation described in Nikolovska-Coleska, Z. (2004) Anal Biochem 332, 261-273.
(§4) Compounds exemplified in Table 6 were tested and found to have IC50s in the following ranges: A: >10 μM; B: <10 μM; C: <1 μM using the fluorescence polarization assay, as shown in Table 5. Each of the IC50s was calculated from Graph Pad.

GST-XIAP BIR3RING = biological target: T2, GST-XIAP BIR3RING (Homo sapiens, UniProt P98170); assay: Fluorescence polarization-based competition assay, XIAP Bir3-RING; format: binding
T2 construct: made in house; host or cells: E. coli DH5-alpha
T2 sequence (P98170 246-497): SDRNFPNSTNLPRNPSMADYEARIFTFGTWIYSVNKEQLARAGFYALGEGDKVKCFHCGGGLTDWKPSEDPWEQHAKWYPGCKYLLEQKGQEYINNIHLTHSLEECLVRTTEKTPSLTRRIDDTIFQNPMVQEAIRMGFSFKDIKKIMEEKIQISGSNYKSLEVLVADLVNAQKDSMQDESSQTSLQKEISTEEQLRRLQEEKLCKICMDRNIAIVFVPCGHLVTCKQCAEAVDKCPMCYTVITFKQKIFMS
Method: GST-XIAP BIR3RING: XIAP coding sequence amino acids 246-497 cloned into PGEX2T1 via BamH1 and AVA I. The plasmid was transformed into E. coli DH5α for use in protein expression and purification.
as §1, §2, §3, §4

MDA-MB-231 cells = assay: Survival assay (MTS) on MDA-MB-231 cells; format: cell-based; settings: Homo sapiens, 72 hours, read-out: EC50 MDA-MB-231 breast derived cell line
Method: MDA-MD-231 (breast) and H460 (lung) cancer cells were cultured in RPMI1640 media supplemented with 10% FBS and 100 units/mL of Penicillin and Steptomycin.
Survival assays were routinely done on MDA-MB-231 and H460 cells. Cells were seeded in 96 well plates at a respective density of 5000 and 2000 cells per well and incubated at 37° C. in presence of 5% CO2 for 24 hours. Selected compounds were diluted into the media at various concentration ranging from 0.01 uM up to 100 uM. Diluted compounds were added onto the MDA-MB-231 cells. For H460 cells, the compounds were added either alone or in presence of 3 ng/ml of TRAIL. After 72 hours cellular viability was evaluated by MTS based assays. A solution of [3-(4,5-dimethylthiazol-2-yl)-5-(3-carboxymethoxyphenyl)-2-(4-sulfophenyl)-2H-tetrazolium, inner salt; MTS] was added onto cells for a period of 1 to 4 hours. Upon incubation the amount of converted MTS was evaluated using a Tecan spectrophotometer set at 570 nm.

GST-HIAP2 (cIAP-1) BIR 3 = biological target: T3, GST-HIAP2 (cIAP-1) BIR 3 (Homo sapiens, UniProt Q13490); assay: Fluorescence polarization-based competition assay, cIAP-1 Bir3; format: binding
T3 construct: made in house; host or cells: E. coli DH5-alpha
T3 sequence (Q13490 251-363): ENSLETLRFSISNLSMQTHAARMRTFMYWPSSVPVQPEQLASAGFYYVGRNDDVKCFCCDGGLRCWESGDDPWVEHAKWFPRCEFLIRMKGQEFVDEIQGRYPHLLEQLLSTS
Method: GST-HIAP2 (cIAP-1) BIR 3: HIAP2 coding sequence from amino acids 251-363 cloned into PGex4T3 via BamH1 and XhoI. The plasmid was transformed into E. coli DH5α for use in protein expression and purification.
as §1, §2, §3, §4

[1] = biological target: T4, caspase-3 inhibited by linker BIR2-BIR3-RING of XIAP (Homo sapiens, UniProt P98170); assay: Caspase-3 linker-BIR2-BIR3-RING derepression assay; format: biochemical
T4 construct: made in house; host or cells: E. coli DH5-alpha (GST-XIAP); E. coli AD494 (His-caspase-3)
T4 sequence (P98170 93-497): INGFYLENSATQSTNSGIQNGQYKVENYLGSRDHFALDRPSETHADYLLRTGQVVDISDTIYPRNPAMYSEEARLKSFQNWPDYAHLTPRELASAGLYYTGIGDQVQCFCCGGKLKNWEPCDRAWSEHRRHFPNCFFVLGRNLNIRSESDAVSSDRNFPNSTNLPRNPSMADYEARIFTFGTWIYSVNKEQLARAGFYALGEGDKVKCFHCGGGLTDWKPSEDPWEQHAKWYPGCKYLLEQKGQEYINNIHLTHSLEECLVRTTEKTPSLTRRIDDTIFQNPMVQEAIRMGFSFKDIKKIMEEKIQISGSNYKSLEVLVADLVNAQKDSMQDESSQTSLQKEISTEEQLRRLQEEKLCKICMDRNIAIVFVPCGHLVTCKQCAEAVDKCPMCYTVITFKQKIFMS
Method: In order to determine the relative activity of the selected compound against BIR2, an in vitro assay was used where caspase-3 was inhibited by linker-BIR2 or linker BIR2-BIR3-RING of XIAP. Briefly, 1.5 ul of the enzyme, 0.25 uM to 2 uM of GST-Xiap fusion protein (GST-linker BIR2, GST-linker BIR2BIR3RING) were co-incubated with serial dilutions of compound (80 uM-0.04 uM). Caspase 3 activity was measured by overlaying 25 ul of a 0.4 mM DEVD-AMC solution. Final reaction volume was 100 ul. All dilutions were performed in caspase buffer (50 mM Hepes pH 7.4, 100 mM NaCl, 10% sucrose, 1 mM EDTA, 10 mM DTT, 0.1% CHAPS (Stennicke, H. R., and Salvesen, G. S. (1997). Biochemical characteristics of caspase-3, -6, -7, and -8. J. Biol. Chem. 272, 25719-25723)).
The fluorescent AMC released from the caspase-3 hydrolysis of the substrate was measured in a TECAN spectrophotometer at 360 nm excitation and 444 nm emission, on a kinetic cycle of 30 minutes with readings taken every 2 minutes. Caspase activity was calculated as Vo of AMC fluorescence/sec. Caspase de-repression by our compounds were compared to caspase-3 alone and caspase 3 repressed by the presence of XIAP fusion protein.
(§5) Results: Compounds were also tested in the apoptosome assay and the linker-BIR2/caspase-3 inhibition assay and found to have IC50s in the following ranges: A: >10 μM; B: <10 μM; C: <1 μM, as shown in Table 7.

[2] = biological target: T5, XIAP Bir2-Bir3-RING (GST-linker BIR2 BIR3RING) (Homo sapiens, UniProt P98170); assay: Caspase de-repression assay using cellular extracts (apoptosome), XIAP Bir2-Bir3-RING; format: biochemical; settings: 293 cell S100 extract
T5 construct: made in house; host or cells: E. coli DH5-alpha
T5 sequence (P98170 93-497): as above
Method: (§6) 100 ug of 293 cell S100 extract and 0.25 uM-2 uM of GST-Xiap fusion protein (GST-BIR 3RING, GST-linker BIR2 BIR3RING) were co-incubated with serial dilutions of compound (0.02 uM-40 uM). Extracts were activated by adding 1 mM dATP, 0.1 mM ALLN, 133 ug Cytochrome C (final concentrations), and incubating at 37° C. for 25 minutes. All reactions and dilutions used S100 buffer (50 mM Pipes pH 7.0, 50 mM KCl, 0.5 mM EGTA pH 8.0, 2 mM MgCl2 supplemented with 1/1000 dilutions of 2 mg/ml Cytochalisin B, 2, mg/ml Chymotstatin, Leupeptin, Pepstatin, Antipain, 0.1M PMSF, 1M DTT). Final reaction volume was 30 ul. Caspase-3 activity was measured by overlaying 30 ul of a 0.4 mM DEVD-AMC solution. AMC cleavage was measured in a TECAN spectrophotometer at 360 nm excitation and 444 nm emission, on a kinetic cycle of 1 hour with readings taken every 5 minutes. Caspase activity was calculated as Vo of AMC fluorescence/sec. Caspase de-repression by our compounds were compared to fully activated extract and activated extract repressed by the presence of XIAP fusion protein.
as §5

[3] = biological target: T6, XIAP Bir3-RING (GST-BIR 3RING) (Homo sapiens, UniProt P98170); assay: Caspase de-repression assay using cellular extracts (apoptosome), XIAP Bir3-RING; format: biochemical; settings: 293 cell S100 extract
T6 construct: made in house; host or cells: E. coli DH5-alpha
T6 sequence (P98170 246-497): as the sequence (P98170 246-497) above
Method: as §6, §5

T1 sequence (Q13489 236-349): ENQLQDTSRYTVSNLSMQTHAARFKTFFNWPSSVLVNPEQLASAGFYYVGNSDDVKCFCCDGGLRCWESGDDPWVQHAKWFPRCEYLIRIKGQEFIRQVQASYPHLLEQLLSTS

Compound | IC50 (GST-HIAP1(cIAP-2) BIR 3) | IC50 (GST-XIAP BIR3RING) | EC50 (MDA-MB-231 cells) | IC50 (GST-HIAP2 (cIAP-1) BIR 3) | IC50 [1] | IC50 [2] | IC50 [3]
CN[C@@H](C)C(=O)N[C@H](C(=O)N1CCC[C@H]1CN(CCc1ccccc1)C(=O)[C@H](N)Cc1ccc(F)cc1)C(C)(C)C [Compound 53] | < 1 µM | < 1 µM | < 5 µM | < 1 µM | – | – | –
CN[C@@H](C)C(=O)N[C@H](C(=O)N1CCC[C@H]1CN(CCc1ccccc1)C(=O)CCCc1ccccc1)C(C)(C)C [Compound 48] | < 1 µM | < 1 µM | < 5 µM | < 1 µM | – | – | –
CN[C@@H](C)C(=O)N[C@@H](CCc1ccccc1)C(=O)N1CCC[C@H]1CN(CCc1ccccc1)C(=O)[C@H](N)Cc1ccccc1 [Compound 89] | – | – | < 5 µM | – | – | – | –
CN[C@@H](C)C(=O)N[C@@H](CCc1ccccc1)C(=O)N1CCC[C@H]1CN(CCc1ccccc1)C(=O)[C@H](N)Cc1ccc(OC)cc1 [Compound 84] | – | – | < 5 µM | – | – | – | –
CC[C@H](N)C(=O)N[C@H](C(=O)N1CCC[C@H]1CNC(=O)Cc1ccccc1)C(C)C [Compound 14] | > 10 µM | > 10 µM | – | > 10 µM | > 10 µM | > 10 µM | < 10 µM
CC[C@H](N)C(=O)N[C@H](C(=O)N1CCC[C@H]1CN(C(=O)C(F)(F)F)[C@H](C)c1ccccc1)C(C)C [Compound 13] | > 10 µM | < 10 µM | – | < 10 µM | > 10 µM | > 10 µM | < 10 µM
CC[C@H](N)C(=O)N[C@H](C(=O)N1CCC[C@H]1CN([C@H](C)c1ccccc1)S(C)(=O)=O)C(C)C [Compound 6] | > 10 µM | > 10 µM | – | > 10 µM | > 10 µM | < 10 µM | < 1 µM
CC(C)[C@H](NC(=O)[C@H](C)N)C(=O)N1CCC[C@H]1CN(CCc1ccccc1)C(=O)CN [Compound 30] | < 1 µM | < 1 µM | – | < 1 µM | > 10 µM | > 10 µM | < 1 µM
CC[C@H](N)C(=O)N[C@H](C(=O)N1CCC[C@H]1CN(Cc1ccccc1)C(=O)C(F)(F)F)C(C)C [Compound 12] | > 10 µM | < 10 µM | – | > 10 µM | > 10 µM | > 10 µM | < 1 µM
CC(C)[C@H](NC(=O)[C@H](C)N)C(=O)N1CCC[C@H]1CN(C(=O)C(F)(F)F)[C@H]1CCCc2ccccc21 [Compound 4] | < 10 µM | < 10 µM | – | < 10 µM | > 10 µM | > 10 µM | > 10 µM
CN[C@@H](C)C(=O)N[C@H](C(=O)N1CCC[C@H]1CN(CCc1ccccc1)C(=O)C(F)(F)F)C(C)(C)C [Compound 10] | < 1 µM | < 1 µM | – | < 1 µM | > 10 µM | > 10 µM | < 10 µM
CC(C)[C@H](NC(=O)[C@H](C)N)C(=O)N1CCC[C@H]1CN(C(=O)C(F)(F)F)[C@@H]1CCCc2ccccc21 [Compound 3] | < 10 µM | < 10 µM | – | < 10 µM | < 10 µM | > 10 µM | < 1 µM
CC(C)[C@H](NC(=O)[C@H](C)N)C(=O)N1CCC[C@H]1CN(CCc1ccccc1)C(=O)OCc1ccccc1 [Compound 15] | < 1 µM | < 1 µM | – | < 1 µM | > 10 µM | > 10 µM | < 10 µM
CC(C)[C@H](NC(=O)[C@H](C)N)C(=O)N1CCC[C@H]1CN(CCc1ccccc1)C(=O)C(F)(F)F [Compound 20] | < 1 µM | < 1 µM | – | < 1 µM | > 10 µM | > 10 µM | < 1 µM
CC(C)[C@H](NC(=O)[C@H](C)N)C(=O)N1CCC[C@H]1CNCCc1ccccc1 [Compound 18] | < 1 µM | < 1 µM | – | < 1 µM | > 10 µM | > 10 µM | < 1 µM
CN[C@@H](C)C(=O)N[C@H](C(=O)N1CCC[C@H]1CN(CCc1ccccc1)C(=O)c1ccc(F)cc1)C(C)(C)C [Compound 75] | – | – | < 5 µM | – | – | – | –
CC(=O)N(Cc1ccccn1)C[C@@H]1CCCN1C(=O)[C@@H](NC(=O)[C@H](C)N)C(C)C [Compound 8] | < 10 µM | > 10 µM | – | < 10 µM | > 10 µM | > 10 µM | < 1 µM

From patent publication US7772177B2, “BIR domain binding compounds” (Aegera Therapeutics, Inc., priority 2005, dated 2010)
